The nature of series [1]: Drug loading efficiency, drug loading content and aqueous solubility of PEG-b-PLA micelles by RP-HPLC. In kind it is physicochemical. The protocol:
The polymeric film was dissolved by addition of sterile water or PBS (10 mM, pH 7.4), followed by centrifugation for 5 min at 13,000 rpm and sterile filtration (0.22 μm (Coring, N.Y.)).

Series [2] in a line: Hydrodynamic diameter of PEG-b-PLA micelles by dynamic light scattering. It is filed as physicochemical. The protocol:
Proton nuclear magnetic resonance (^1H NMR) data were recorded on a Varian Unity-Inova two-channel 400 MHz NMR spectrometer (Palo Alto, Calif.) with regulated temperature at 25° C. Chemical shifts (δ) were reported in parts per million (ppm) relative to residual protonated solvent resonance at 7.26 ppm for CDCl3. Mass spectrometry data was obtained using the Waters LCT (ESI-TOF) in the Chemical Instrumentation Center in the Department of Chemistry, University of Wisconsin-Madison. Samples were sprayed from a 10 mM NH4OAc/CH3CN solution. Reverse-phase HPLC (RP-HPLC) analysis was carried out using a Shimadzu Prominence HPLC system (Shimadzu, Japan) equipped with an LC-20AT pump, a SIL-20AC HT autosampler, a CTO-20AC column oven, and a SPD-M20A diode array detector. Sample was separated by a Waters Symmetry Shield™ RP18 column (4.6 mm×250 mm, 5 μm, 100 Å). 10 μL of sample was injected at a flow rate of 0.8 mL/min, column temperature at 25° C., and UV detection wavelength at 227 nm. The separation of o(LA)n-PTX conversion products was done in gradient mode with organic phase containing 100% CH3CN as solvent A, and aqueous phase containing 100% milliQ water as solvent B. Gradient elution was employed as follows: 0 min, 50% solvent A and 50% solvent B; 35 min, 95% solvent A and 5% solvent B; and 40 min for equilibration. Hydrodynamic diameters of PEG-b-PLA micelles were measured by dynamic light scattering (DLS) using a Zetasizer Nano-ZS (Malvern Instruments Inc., UK) at 25° C. with a detection angle of […] and a He—Ne ion laser as the light source (4 mW, 633 nm). Prior to measurements, PEG-b-PLA micelle solutions were diluted with milliQ water or PBS (10 mM, pH 7.4) to afford the level of PEG-b-PLA at ˜0.1 mg/mL and 1 mL of each sample was placed into a disposable sizing cuvette (BRAND Polystyrene Cuvettes). The cumulant method was used to curve-fit the correlation function, and the z-average diameter and polydispersity index (PDI) of PEG-b-PLA micelles were calculated from the Stokes-Einstein equation and the slope of the correlation function, respectively. All measurements were performed in triplicate.

Series [3] in a line: Physical stability of drug- or conjugate-loaded PEG-b-PLA micelles (precipitation). The note with it: for Stability: PEG-b-PLA micelles; for time until SEL precipitated out of PEG-b-PLA micelles: micelles containing unconjugated SEL alone. Here is the method: Instead, loading efficiency of PTX was low, ca. 21%, and drug loading for PEG-b-PLA micelles leveled off at 11.2% drug loading.
SEL drug loading for PEG-b-PLA micelles was 1% with a very low drug loading efficiency of 5%. […] In contrast, the PEG-b-PLA micelles containing unconjugated SEL were unstable and SEL precipitated out within about 5 minutes.

In the next series the test system is A549 NSCLC cell line. In words: IC50 values and combination index analysis of PTX, SEL and RAP alone and in combination. The note with it: alone or combination at molar ratio PTX:SEL 2:3, PTX:RAP 2:1, SEL:RAP 3:1, PTX:SEL:RAP 2:3:1. It is filed as cell-based, human. The protocol: The cells were seeded into a 96-well plate at a seeding density of 1,500 cells/100 μL/well and cultured in RPMI 1640 medium at 37° C. in 5% CO2 incubator for 24 h. […] Each was added into the wells to attain a final concentrations of 0.1, 1, 10, 100, and 1000 nM. The final level of DMSO in the medium was <0.1% at all drug levels. Cells cultured with diluted DMSO or PBS in medium were used as controls. Drug treated cells were placed in an incubator at 5% CO2 at 37° C. for 72 h. The medium in each well was aspirated, and 100 μL of 20% (v/v) CellTiter-Blue reagent in serum free RPMI medium was added, followed by incubation at 37° C. in 5% CO2 atmosphere for 1.5 h. Fluorescence intensity was measured by a SpectraMax M2 plate reader (Molecular Devices, CA) with excitation and emission at 560 and 590 nm, respectively. The half maximal inhibitory drug concentration (IC50) was determined by using GraphPad Prism version 5.00 for Windows (GraphPad Software, CA).
In vitro anticancer activity of PTX, SEL, and RAP alone and in combination.

Series [4] in a line: In vitro release from PEG-b-PLA micelles (dialysis cassette). It is filed as physicochemical. The protocol: Four dialysis cassettes were placed in 4 L PBS solution (10 mM, pH 7.4) on a Corning Hotplate Stirrer (Corning, N.Y.) at 37° C. […] At each time point, a sample of 100 μL was withdrawn, and the cassettes were replenished with 100 μL of fresh PBS solution (10 mM, pH 7.4). The external medium was replaced with 4 L of fresh buffer at 2, 4, 8, 12, 24 and 48 h to approximate sink conditions.

The test system of series [5] is human A549 non-small lung cancer cells. Nature of the series: In vitro cytotoxicity, CellTiter-Blue Cell Viability Assay. It is filed as cell-based. As to conditions: free form, 72 h.
From the text: All chemicals were purchased from Sigma-Aldrich (St. Louis, Mo.) and used as received. Analytical grade organic solvents and all other reagents were purchased from Fisher Scientific (Pittsburgh, Pa.). PTX was purchased from LC Laboratories (Woburn, Mass.). PEG-b-PLA was purchased from Advanced Polymer Materials Inc. (Montreal, Canada): Mn of PEG and PLA was 4,000 and 2,200 g/mol, respectively; PDI 1.05. A549 human lung adenocarcinoma cells were purchased from ATCC (Manassas, Va.) and grown in RPMI 1640 medium supplemented with 10% fetal bovine serum (FBS), 100 IU/mL penicillin, 100 μg/mL streptomycin, and 2 mML-glutamine in 5% CO2 incubator at 37° C.
Each was added into the wells to attain a final concentrations of 0.1, 1, 10, 100, and 1000 nM. The final level of DMSO in the medium was <0.1% at all drug levels. Cells cultured with diluted DMSO or PBS in medium were used as controls. […] The medium in each well was aspirated, and 100 μL of 20% (v/v) CellTiter-Blue reagent in serum free RPMI medium was added, followed by incubation at 37° C. in 5% CO2 atmosphere for 1.5 h. Fluorescence intensity was measured by a SpectraMax M2 plate reader (Molecular Devices, CA) with excitation and emission at 560 and 590 nm, respectively. The half maximal inhibitory drug concentration (IC50) was determined by using GraphPad Prism version 5.00 for Windows (GraphPad Software, CA).
The test system of series [6] is A549 xenograft tumor model. In words: In vivo antitumor efficacy in A549 xenograft tumor model. Also noted: species or system female athymic nude mice. The note with it: PEG-b-PLA micelles, 20 mg/kg, weekly tail vein injection, 3 weekly injections and one week off x 3 cycles.
Method: All animal experiments were conducted under the protocol approved by Institutional Animal Care and Use Committee in University of Wisconsin-Madison in accordance with institutional and NIH guidance for the Care and Use of Laboratory Animals. 6-8 week-old female athymic nude mice (20-25 g each) were acquired from laboratory animal resources at School of Medicine and Public Health, University of Wisconsin-Madison. Mice were housed in ventilated cages with free access to water and food and acclimated for 1 week prior tumor cell injection. A549 cells (2×10^6 cells in 100 μL of serum-free RPMI 1640 medium) were harvested from sub-confluent cultures after trypsinization and were injected subcutaneously into the right flank of each mouse. […] Drug conjugates were administered via tail vein for 3 weekly injections, followed by 1-week rest period, totaling 3 cycles over a 12 weeks period. Body weight and tumor volume were monitored over the course of study. Tumor volume was calculated using the formula: V=(a×b^2)/2, where V is tumor volume, a is tumor length, b is tumor width.
Where [7] appears, read: Table 1C, PEG-b-PLA micelles, drug to polymer ratio 1:5.
The mark [8] stands for this setting: Table 2, PTX, SEL and RAP co-loaded as 3-in-1 micelle, initial level 1, 1.5, 0.5 mg, molar ratio 2:6:1, 21 mg PEG4000-b-PLA2200.
The mark [9] stands for this setting: Table 1C, drug to polymer ratio 1:5.
Where [10] appears, read: Table 1A, PEG-b-PLA micelles, drug to polymer ratio 1:10, initial level 1 mg, mean ± SD, n = 3.
[11] abbreviates: Table 1B, PEG-b-PLA micelles, drug to polymer ratio 1:1.
The mark [12] stands for this setting: Table 1B, PEG-b-PLA micelles, drug to polymer ratio 1:5.
Setting [13] is: Table 1B, PEG-b-PLA micelles, drug to polymer ratio 1:10.
The mark [14] stands for this setting: Table 1B, drug to polymer ratio 1:1.
[15] abbreviates: Table 1B, drug to polymer ratio 1:5.
[16] abbreviates: Table 1B, drug to polymer ratio 1:10.

We go through three compounds from patent US10456477B2, “Oligolactic acid conjugates and micelles with enhanced anticancer efficacy” (Wisconsin Alumni Research Foundation, priority 2016, dated 2019).

≈ marks a conversion by molar mass, not a printed value. Where “and” joins values, the source holds several entries; their conditions need not be identical. Equal entries are not always repeated. Where two headings read alike, the source gives them in different places.

Consider `Cn1cnc2c(F)c(Nc3ccc(Br)cc3Cl)c(C(=O)NOCCO)cc21` [SEL, selumetinib], for which the “drug loading, loaded in micelles with free paclitaxel and free rapamycin” value in series [1] (3-drug co-loading) is reported as “greater than 6 wt %”. Besides, in series [1] (setting [7]), the Drug loading was found to be 1%; the Drug loading efficiency was 5% and 5.1%. In addition, in series [1] (setting [8]), the Drug loading is recorded as 6.3%; the Loading efficiency is 100% and 101.7%. Further, in series [1] (aqueous with cosolvent or surfactant or cyclodextrin, Table 1C, PEG-b-PLA micelles, drug to polymer ratio 1:5, read-out: Apparent solubility), the solubility (usually the concentration that dissolves in the medium under given conditions) came out at 100 µg/mL. Besides, in series [1] (free selumetinib alone), the “drug loading, loaded alone in micelles” value was “about 1 wt %”. The Particle size in series [2] (setting [9]) is reported as 60.6 ± 0.6 nm. Moreover, in series [3] (setting [9]), the Stability is reported as <2 h. The “time until SEL precipitated out of PEG-b-PLA micelles” value in series [3] is ≤ 5 min. In addition, the “time until SEL precipitated out of PEG-b-PLA micelles” value in series [3] (listed as selumetinib) is on record as “about 5 minutes”. For the same compound, the IC50 (commonly the concentration that inhibits the measured activity by half) in the series on A549 NSCLC cell line is 1729 ± 1.6 nM.

With `CC(=O)O[C@H]1C(=O)[C@@]2(C)[C@H]([C@H](OC(=O)c3ccccc3)[C@]3(O)C[C@H](OC(=O)[C@H](O)[C@@H](NC(=O)c4ccccc4)c4ccccc4)C(C)=C1C3(C)C)[C@]1(OC(C)=O)CO[C@@H]1C[C@@H]2O` [PTX, paclitaxel], the solubility in series [1] (PEG-b-PLA micelles in water, aqueous with cosolvent or surfactant or cyclodextrin, Table 1A, PEG-b-PLA micelles, drug to polymer ratio 1:10, initial level 1 mg, mean ± SD, n = 3, read-out: Apparent solubility) is 900 µg/mL; in series [1] (PEG-b-PLA micelles in water, aqueous with cosolvent or surfactant or cyclodextrin, Table 1A, PEG-b-PLA micelles, drug to polymer ratio 3:5, initial level 6 mg, mean ± SD, n = 3, read-out: Apparent solubility), 1200 ± 100 µg/mL; in series [1] (water, PTX without PEG-b-PLA micelles, read-out: water solubility) it was ~10 µg/mL (≈ 11.7 µM). The Drug loading in series [1] (setting [10]) is 8.6% and 8.6 ± 1.1%; in series [1] (Table 1A, PEG-b-PLA micelles, drug to polymer ratio 3:5, initial level 6 mg, mean ± SD, n = 3) it was 11.2% and 11.2 ± 1.1%; in series [1] (setting [8]) it was 4.3%. In series [1] (setting [10]), the Drug loading efficiency was determined as 93.8 ± 12.8%. Moreover, the Loading efficiency in series [1] (setting [8]) was 100% and 104%. Further, the “Particle size” value is 30.5 nm and 30.5 ± 0.3 nm in series [2] (Table 1A, drug to polymer ratio 1:10, initial level 1 mg, 10 mg PEG-b-PLA, mean ± SD, n = 3); 37.0 ± 5.7 nm in series [2] (Table 1A, drug to polymer ratio 3:5, initial level 6 mg, 10 mg PEG-b-PLA, mean ± SD, n = 3). In addition, the “micelles precipitating in” value in series [3] (PEG-b-PLA micelles at room temperature) was “less than 2 hours”. For the same compound, the “precipitation of PTX during in vitro release” value in series [4] (9% drug loading, particle size 30 nm, PEG-b-PLA micelles) is < 4 h. Further, the “in vitro release from PEG-b-PLA micelles (in words)” value in series [4] (PBS 10 mM, pH 7.4, 37° C., FIG. 4) is “rapidly released”. Moreover, the IC50 in series [5] came to 2 nM; with A549 NSCLC cell line it was 7.4 ± 1.2 nM. In series [6], the “tumor growth / tumor volume” value is “tumor growth inhibition during treatment over 71 days and delayed tumor growth”.

On to `CO[C@H]1C[C@@H]2CC[C@@H](C)[C@@](O)(O2)C(=O)C(=O)N2CCCC[C@H]2C(=O)O[C@H]([C@H](C)C[C@@H]2CC[C@@H](O)[C@H](OC)C2)CC(=O)[C@H](C)/C=C(\C)[C@@H](O)[C@@H](OC)C(=O)[C@H](C)C[C@H](C)/C=C/C=C/C=C/1C` [RAP, rapamycin], for which the solubility in series [1] (PEG-b-PLA micelles, aqueous with cosolvent or surfactant or cyclodextrin, Table 1B, PEG-b-PLA micelles, drug to polymer ratio 1:1, read-out: Apparent solubility) was determined as 500 µg/mL; in series [1] (PEG-b-PLA micelles, aqueous with cosolvent or surfactant or cyclodextrin, Table 1B, PEG-b-PLA micelles, drug to polymer ratio 1:5, read-out: Apparent solubility), 900 µg/mL; in series [1] (PEG-b-PLA micelles, aqueous with cosolvent or surfactant or cyclodextrin, Table 1B, PEG-b-PLA micelles, drug to polymer ratio 1:10, read-out: Apparent solubility), 1400 µg/mL. Also, the Drug loading stood at 11.5% in series [1] (setting [11]), 7.3% in series [1] (setting [12]), 6.4% in series [1] (setting [13]) and 2.2% in series [1] (setting [8]). Moreover, the Drug loading efficiency in series [1] (setting [11]) is 23%; in series [1] (setting [12]), 44.0%; in series [1] (setting [13]) it was 70.1%. For the same compound, the Loading efficiency in series [1] (setting [8]) was 100% and 104.6%. In addition, the Particle size in series [2] (setting [14]) was found to be 59.5 ± 21.6 nm; in series [2] (setting [15]) it was 36.2 ± 0.4 nm; in series [2] (setting [16]) it was 37.7 ± 1.9 nm. In addition, the Stability in series [3] (setting [14]), in series [3] (setting [15]) and in series [3] (setting [16]) was <24 h throughout. Besides, in series [3] (all PEG-b-PLA micelles containing unconjugated RAP), the “micelles released drug in” value is given as “less than 24 hours”. In addition, the half-inhibitory concentration (IC50) with A549 NSCLC cell line came out at 320.6 ± 2.3 nM.
